Activity calls are given as the source filed them. The calls are words filed in the database; no cut-off is given here.
Key:
[1] = tested on: HT-1080; assay: Induction of ferroptosis in human HT-1080 cells assessed as cell death at 10 uM incubated for 24 hrs in presence of Trolox by MTT assay; type: functional, cell-based
[2] = tested on: HT-1080; assay: Induction of ferroptosis in human HT-1080 cells assessed as cell death at 10 uM incubated for 24 hrs in presence of Z-VAD-FMK by MTT assay; type: functional, cell-based
[3] = tested on: HT-1080; assay: Induction of ferroptosis in human HT-1080 cells assessed as cell death at 10 uM incubated for 24 hrs in presence of Nec-1 by MTT assay; type: functional, cell-based
[4] = tested on: HT-1080; assay: Induction of ferroptosis in human HT-1080 cells assessed as increase in cytosolic ROS accumulation at 5 uM incubated for 10 hrs in presence of Fer-1 by H2DCFDA probe based flow cytometry; type: functional, cell-based
[5] = tested on: HT-1080; assay: Induction of ferroptosis in human HT-1080 cells assessed as increase in CHAC1 mRNA level incubated for 6 hrs by qPCR analysis; type: functional, cell-based; conditions: dose 0.5-5 µM
[6] = tested on: HT-1080; assay: Effect on GPX4 mRNA level in human HT-1080 cells at 0.5 to 5 uM incubated for 18 hrs by qPCR analysis; type: functional, cell-based; conditions: dose 0.5-5 µM
[7] = tested on: MDA-MB-231; assay: Lethality in human MDA-MB-231 cells assessed as decrease in cell viability at 10 uM incubated for 48 hrs by MTT assay; type: functional, cell-based
[8] = tested on: DU-145; assay: Lethality in human DU-145 cells assessed as decrease in cell viability at 10 uM incubated for 48 hrs by MTT assay; type: functional, cell-based
[9] = tested on: 786-0; assay: Lethality in human 786-0 cells assessed as decrease in cell viability at 10 uM incubated for 48 hrs in presence of Fer-1 by MTT assay; type: functional, cell-based
[10] = tested on: DU-145; assay: Lethality in human DU-145 cells assessed as decrease in cell viability at 10 uM incubated for 48 hrs in presence of Fer-1 by MTT assay; type: functional, cell-based
[11] = Toxicity in BALB/c nude mouse xenografted with human HepG2 cells assessed as histological change in lung at 15 to 30 mg/kg, ip administered every other day for 21 days by H and E staining based analysis; type: organism-based; conditions: in vivo, 504 h, dose 15-30 mg/kg, time 21 day
[12] = Toxicity in BALB/c nude mouse xenografted with human HepG2 cells assessed as histological change in kidney at 15 to 30 mg/kg, ip administered every other day for 21 days by H and E staining based analysis; type: organism-based; conditions: in vivo, 504 h, dose 15-30 mg/kg, time 21 day
[13] = tested on: HepG2; assay: Induction of ferroptosis in human HepG2 cells xenografted in BALB/c nude mouse assessed as increase in MDA level administered intraperitoneally every other day for 21 days; type: functional; conditions: dose 15-30 mg/kg, route ip, time 21.0 day

In the case of `CN(C)S(=O)(=O)c1ccc(N2CCC(Cn3c(C(F)(F)F)nc4ccccc43)CC2)cc1`, the Activity [1] is reported as “inactive”, the Activity [2] is reported as “Active” and the Activity [3] is reported as “Active”. For the same compound, the Activity [4] was “inactive”, the Activity [5] was “Dose-Dependent Effect” and the Activity [6] was “inactive”. For the same compound, the Activity [7] was “Active”, the Activity [8] was “Active” and the Activity [9] was “inactive”. The Activity [10] was “inactive”, the Activity [11] was “Non-Toxic” and the Activity [12] was “Non-Toxic”. The Activity [13] was “Dose-Dependent Effect”.

— ChEMBL document CHEMBL5385865, “Discovery and optimization of 2-(trifluoromethyl)benzimidazole derivatives as novel ferroptosis inducers in vitro and in vivo” (Eur J Med Chem, 2023)
